Measurements as given in PMC5452050 (ACS Omega, 2017).
Converted amounts (≈) assume the structure as drawn.

Experiments:
AURKA = AURKA (Homo sapiens, UniProt O14965); test: Kd determination; assay type: binding
PRKCQ = PRKCQ (Homo sapiens, UniProt Q04759); test: Kd determination; assay type: binding
IRAK1 = IRAK1 (Homo sapiens, UniProt P51617); test: Kd determination; assay type: binding
AXL = AXL (Homo sapiens, UniProt P30530); test: Kd determination; assay type: binding
[1] = Liver microsomal stability; conditions: dog, liver microsomes, pH 7.4
PDGFRB = PDGFRB (Homo sapiens, UniProt P09619); test: Kd determination; assay type: binding
Solubility = assay type: physicochemical; conditions: buffer, pH 7.4, aqueous buffer, kinetic from dmso stock
TRKA = TRKA (Homo sapiens, UniProt P04629); test: Kd determination; assay type: binding
KIT = KIT (Homo sapiens, UniProt P10721); test: Kd determination; assay type: binding
[2] = Liver microsomal stability; conditions: female, CD-1, mouse, liver microsomes, pH 7.4
SRC = SRC (Homo sapiens, UniProt P12931); test: Kd determination; assay type: binding
CSF1R-autoinhibited = CSF1R-autoinhibited (Homo sapiens, UniProt P07333); test: Kd determination; assay type: binding
[3] = target: T1, recombinant human FLT3 (571–993) (Homo sapiens, UniProt P36888); test: biochemical; assay type: biochemical
T1 sequence (P36888 571-993): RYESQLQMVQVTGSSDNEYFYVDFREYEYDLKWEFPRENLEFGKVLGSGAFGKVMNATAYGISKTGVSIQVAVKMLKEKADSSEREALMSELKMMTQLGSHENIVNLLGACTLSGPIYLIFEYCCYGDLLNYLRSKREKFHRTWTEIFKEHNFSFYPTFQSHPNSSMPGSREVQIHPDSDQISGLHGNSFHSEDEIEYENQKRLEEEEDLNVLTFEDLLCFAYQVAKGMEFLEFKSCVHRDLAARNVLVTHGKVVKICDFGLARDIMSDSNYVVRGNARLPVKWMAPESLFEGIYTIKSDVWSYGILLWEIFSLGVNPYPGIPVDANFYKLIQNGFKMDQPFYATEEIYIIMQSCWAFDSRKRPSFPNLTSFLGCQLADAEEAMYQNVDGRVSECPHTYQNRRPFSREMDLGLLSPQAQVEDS

MINK = MINK (Homo sapiens, UniProt Q8N4C8); test: Kd determination; assay type: binding
CLK1 = CLK1 (Homo sapiens, UniProt P49759); test: Kd determination; assay type: binding
PIP5K1C = PIP5K1C (Homo sapiens, UniProt O60331); test: Kd determination; assay type: binding
AURKC = AURKC (Homo sapiens, UniProt Q9UQB9); test: Kd determination; assay type: binding
HCK = HCK (Homo sapiens, UniProt P08631); test: Kd determination; assay type: binding
RET (M918T) = RET (M918T) (Homo sapiens, UniProt P07949, M918T); test: Kd determination; assay type: binding
PIK4CB = PIK4CB (Homo sapiens, UniProt Q9UBF8); test: Kd determination; assay type: binding
LCK = LCK (Homo sapiens, UniProt P06239); test: Kd determination; assay type: binding
NEK10 = NEK10 (Homo sapiens, UniProt Q6ZWH5); test: Kd determination; assay type: binding
[4] = Liver microsomal stability; conditions: rat, liver microsomes, pH 7.4
[5] = target: ABL1 (H396P)-phosphorylated (Homo sapiens, UniProt P00519, H396P); test: Kd determination; assay type: binding
CLK4 = CLK4 (Homo sapiens, UniProt Q9HAZ1); test: Kd determination; assay type: binding
TYRO3 = TYRO3 (Homo sapiens, UniProt Q06418); test: Kd determination; assay type: binding
CSF1R = CSF1R (Homo sapiens, UniProt P07333); test: Kd determination; assay type: binding
[6] = target: TYK2 (JH1 domain-catalytic) (Homo sapiens, UniProt P29597); test: Kd determination; assay type: binding
Plasma stability [7] = assay type: in vitro ADME; conditions: mouse
[8] = target: JAK1 (JH2 domain-pseudokinase) (Homo sapiens, UniProt P23458); test: Kd determination; assay type: binding
Plasma stability [9] = assay type: in vitro ADME; conditions: human
EPHB6 = EPHB6 (Homo sapiens, UniProt O15197); test: Kd determination; assay type: binding
[10] = In vivo pharmacokinetic study; design: species or system mouse
Plasma stability [11] = assay type: in vitro ADME; conditions: rat
[12] = female, C57BL/6, mouse, plasma, ip, 3 mg/kg
[13] = female, C57BL/6, mouse, plasma, ip, 5 mg/kg
[14] = female, C57BL/6, mouse, plasma, ip, 10 mg/kg

PIP5K1C, sequence (O60331 whole entry): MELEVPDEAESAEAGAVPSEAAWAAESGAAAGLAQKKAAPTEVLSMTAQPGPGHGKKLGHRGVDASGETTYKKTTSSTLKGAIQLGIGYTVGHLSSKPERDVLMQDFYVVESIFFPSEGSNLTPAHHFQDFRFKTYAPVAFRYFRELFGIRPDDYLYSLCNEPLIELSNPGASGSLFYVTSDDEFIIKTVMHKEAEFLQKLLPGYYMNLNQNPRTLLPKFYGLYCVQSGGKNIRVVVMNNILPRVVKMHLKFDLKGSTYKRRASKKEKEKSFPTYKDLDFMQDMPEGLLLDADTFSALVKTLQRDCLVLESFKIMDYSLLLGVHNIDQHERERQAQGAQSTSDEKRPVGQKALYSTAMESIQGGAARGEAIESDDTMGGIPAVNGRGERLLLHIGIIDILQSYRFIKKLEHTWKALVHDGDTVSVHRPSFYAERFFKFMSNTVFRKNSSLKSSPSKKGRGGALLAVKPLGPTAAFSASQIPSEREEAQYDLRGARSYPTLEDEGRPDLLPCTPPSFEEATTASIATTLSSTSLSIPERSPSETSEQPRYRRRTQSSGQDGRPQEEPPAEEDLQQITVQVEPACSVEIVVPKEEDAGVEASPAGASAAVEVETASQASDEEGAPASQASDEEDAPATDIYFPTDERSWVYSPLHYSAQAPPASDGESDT
NEK10, sequence (Q6ZWH5 whole entry): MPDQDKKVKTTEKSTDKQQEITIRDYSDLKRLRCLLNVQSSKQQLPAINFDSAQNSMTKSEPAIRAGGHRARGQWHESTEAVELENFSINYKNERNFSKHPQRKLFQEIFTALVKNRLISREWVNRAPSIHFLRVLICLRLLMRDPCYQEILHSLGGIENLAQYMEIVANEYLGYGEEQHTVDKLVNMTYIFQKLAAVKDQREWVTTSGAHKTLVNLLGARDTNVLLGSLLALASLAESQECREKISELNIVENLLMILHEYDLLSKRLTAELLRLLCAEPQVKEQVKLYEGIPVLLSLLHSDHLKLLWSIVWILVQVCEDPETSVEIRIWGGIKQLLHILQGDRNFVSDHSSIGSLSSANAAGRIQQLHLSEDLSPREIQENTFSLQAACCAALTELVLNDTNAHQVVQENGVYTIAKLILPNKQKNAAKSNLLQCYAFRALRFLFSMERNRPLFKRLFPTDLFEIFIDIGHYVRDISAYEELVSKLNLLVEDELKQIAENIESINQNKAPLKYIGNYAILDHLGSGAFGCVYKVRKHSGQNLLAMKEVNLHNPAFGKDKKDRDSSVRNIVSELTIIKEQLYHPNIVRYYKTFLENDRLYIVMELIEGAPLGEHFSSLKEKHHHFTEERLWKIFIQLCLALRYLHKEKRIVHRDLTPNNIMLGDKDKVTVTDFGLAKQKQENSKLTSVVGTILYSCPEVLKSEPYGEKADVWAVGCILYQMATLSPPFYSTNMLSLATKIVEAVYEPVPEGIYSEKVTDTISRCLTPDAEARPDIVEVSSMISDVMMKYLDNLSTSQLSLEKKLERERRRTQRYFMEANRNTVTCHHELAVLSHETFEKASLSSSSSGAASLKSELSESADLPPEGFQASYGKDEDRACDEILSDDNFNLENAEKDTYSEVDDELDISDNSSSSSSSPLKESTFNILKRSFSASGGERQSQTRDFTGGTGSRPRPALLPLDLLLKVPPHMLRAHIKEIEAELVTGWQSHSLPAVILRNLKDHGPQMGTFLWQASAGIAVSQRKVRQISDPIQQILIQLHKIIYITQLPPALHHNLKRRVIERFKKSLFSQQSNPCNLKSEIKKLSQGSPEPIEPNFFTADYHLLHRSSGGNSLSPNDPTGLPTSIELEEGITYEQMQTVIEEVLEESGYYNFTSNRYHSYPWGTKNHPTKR
CLK4, sequence (Q9HAZ1 whole entry): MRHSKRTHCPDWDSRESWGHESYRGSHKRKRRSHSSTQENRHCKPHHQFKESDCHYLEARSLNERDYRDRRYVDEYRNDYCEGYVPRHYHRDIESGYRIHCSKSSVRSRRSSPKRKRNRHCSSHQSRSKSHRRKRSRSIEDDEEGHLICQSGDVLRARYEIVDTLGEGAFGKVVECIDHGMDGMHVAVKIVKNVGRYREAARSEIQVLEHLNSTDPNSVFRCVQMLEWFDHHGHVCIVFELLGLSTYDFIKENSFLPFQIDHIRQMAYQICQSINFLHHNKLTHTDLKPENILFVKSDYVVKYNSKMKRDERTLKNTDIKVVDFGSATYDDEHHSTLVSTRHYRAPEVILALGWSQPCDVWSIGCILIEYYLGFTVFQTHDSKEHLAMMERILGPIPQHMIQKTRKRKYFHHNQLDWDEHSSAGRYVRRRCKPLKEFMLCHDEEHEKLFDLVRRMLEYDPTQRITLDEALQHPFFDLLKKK
PDGFRB, sequence (P09619 33-1106): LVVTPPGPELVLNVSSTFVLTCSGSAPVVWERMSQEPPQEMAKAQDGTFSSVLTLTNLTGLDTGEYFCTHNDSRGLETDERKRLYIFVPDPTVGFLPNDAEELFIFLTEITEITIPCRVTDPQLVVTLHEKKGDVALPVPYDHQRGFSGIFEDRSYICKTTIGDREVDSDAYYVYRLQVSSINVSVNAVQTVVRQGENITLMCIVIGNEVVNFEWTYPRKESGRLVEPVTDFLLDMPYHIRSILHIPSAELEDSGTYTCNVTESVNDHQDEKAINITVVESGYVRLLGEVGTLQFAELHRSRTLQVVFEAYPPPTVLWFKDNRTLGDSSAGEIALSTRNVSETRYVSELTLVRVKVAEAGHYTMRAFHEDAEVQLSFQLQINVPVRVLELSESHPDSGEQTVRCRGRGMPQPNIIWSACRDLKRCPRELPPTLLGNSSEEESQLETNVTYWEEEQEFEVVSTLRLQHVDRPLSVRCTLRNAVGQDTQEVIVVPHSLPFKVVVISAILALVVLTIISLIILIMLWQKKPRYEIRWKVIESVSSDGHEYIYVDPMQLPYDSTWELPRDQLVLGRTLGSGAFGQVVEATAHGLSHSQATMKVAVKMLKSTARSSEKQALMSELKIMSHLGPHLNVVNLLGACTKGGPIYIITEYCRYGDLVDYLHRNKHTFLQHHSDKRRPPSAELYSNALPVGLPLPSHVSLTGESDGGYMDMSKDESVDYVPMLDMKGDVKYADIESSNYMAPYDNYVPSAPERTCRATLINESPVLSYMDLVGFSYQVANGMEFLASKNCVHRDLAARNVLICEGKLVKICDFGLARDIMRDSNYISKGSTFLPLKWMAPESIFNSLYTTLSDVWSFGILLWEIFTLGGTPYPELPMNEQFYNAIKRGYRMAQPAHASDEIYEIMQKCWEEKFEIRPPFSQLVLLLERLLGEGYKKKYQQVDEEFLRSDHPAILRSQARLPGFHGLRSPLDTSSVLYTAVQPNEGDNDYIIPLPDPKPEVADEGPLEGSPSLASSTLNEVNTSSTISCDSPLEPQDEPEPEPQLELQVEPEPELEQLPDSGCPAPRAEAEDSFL
CLK1, sequence (P49759 whole entry): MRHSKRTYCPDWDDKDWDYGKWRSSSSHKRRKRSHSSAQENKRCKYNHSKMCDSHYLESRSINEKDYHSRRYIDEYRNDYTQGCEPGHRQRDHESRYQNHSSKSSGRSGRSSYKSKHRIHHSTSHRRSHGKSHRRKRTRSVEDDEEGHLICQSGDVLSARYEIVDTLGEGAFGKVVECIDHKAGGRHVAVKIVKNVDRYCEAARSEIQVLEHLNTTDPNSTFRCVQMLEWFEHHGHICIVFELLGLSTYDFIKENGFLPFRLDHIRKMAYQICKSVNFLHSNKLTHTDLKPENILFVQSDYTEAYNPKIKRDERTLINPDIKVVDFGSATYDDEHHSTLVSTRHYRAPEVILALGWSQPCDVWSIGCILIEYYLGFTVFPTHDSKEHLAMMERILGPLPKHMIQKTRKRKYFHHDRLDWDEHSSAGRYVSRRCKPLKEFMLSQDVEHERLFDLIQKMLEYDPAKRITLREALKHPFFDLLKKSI
PIK4CB, sequence (Q9UBF8 whole entry): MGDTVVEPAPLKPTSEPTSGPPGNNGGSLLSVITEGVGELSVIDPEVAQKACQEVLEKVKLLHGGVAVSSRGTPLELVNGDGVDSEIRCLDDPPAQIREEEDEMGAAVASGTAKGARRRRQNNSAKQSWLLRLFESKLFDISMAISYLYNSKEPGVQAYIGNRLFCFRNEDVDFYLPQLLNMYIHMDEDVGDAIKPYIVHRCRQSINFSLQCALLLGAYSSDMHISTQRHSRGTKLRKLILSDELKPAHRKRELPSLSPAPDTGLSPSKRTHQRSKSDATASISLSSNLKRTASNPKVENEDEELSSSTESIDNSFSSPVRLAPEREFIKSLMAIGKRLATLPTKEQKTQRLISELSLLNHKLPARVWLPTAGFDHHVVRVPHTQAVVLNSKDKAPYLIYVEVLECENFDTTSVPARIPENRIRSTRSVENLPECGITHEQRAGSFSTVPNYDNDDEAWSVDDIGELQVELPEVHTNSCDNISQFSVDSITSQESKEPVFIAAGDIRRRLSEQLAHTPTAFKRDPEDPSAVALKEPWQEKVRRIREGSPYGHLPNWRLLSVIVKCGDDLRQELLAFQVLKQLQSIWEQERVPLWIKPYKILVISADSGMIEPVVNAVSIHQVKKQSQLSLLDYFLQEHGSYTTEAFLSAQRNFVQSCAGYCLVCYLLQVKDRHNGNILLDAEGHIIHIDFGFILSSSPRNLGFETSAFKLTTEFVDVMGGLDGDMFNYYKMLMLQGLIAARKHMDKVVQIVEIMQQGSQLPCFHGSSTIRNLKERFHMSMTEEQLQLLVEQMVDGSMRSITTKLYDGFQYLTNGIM
JAK1 (JH2 domain-pseudokinase), sequence (P23458 583-855 limits assumed): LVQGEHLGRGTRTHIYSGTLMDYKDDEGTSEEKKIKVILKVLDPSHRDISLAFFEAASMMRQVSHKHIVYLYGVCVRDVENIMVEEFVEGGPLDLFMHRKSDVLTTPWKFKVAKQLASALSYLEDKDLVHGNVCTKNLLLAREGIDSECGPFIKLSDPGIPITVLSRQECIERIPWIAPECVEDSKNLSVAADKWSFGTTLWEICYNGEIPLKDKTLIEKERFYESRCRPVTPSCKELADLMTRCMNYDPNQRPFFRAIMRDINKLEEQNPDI

**Q.** Which Kd (AURKA) does the source give for `c1cncc(-c2cccc(Nc3nccc(NC4CCCCC4)n3)c2)c1` [Compound 1, N^4-Cyclohexyl-N^2-(3-(pyridin-3-yl)phenyl)pyrimidine-2,4-diamine] here?
**A.** 1600 nM

**Q.** And the Kd (PRKCQ)?
**A.** 1600 nM

**Q.** What about the Kd (IRAK1) of the same compound?
**A.** 1500 nM

**Q.** What about the Kd (AXL) of the same compound?
**A.** 2100 nM

**Q.** And the CLint scaled at 4 µM [1]?
**A.** 49.4 ± 3.9 mL/min/kg

**Q.** What about the half-life at 4 µM [1] of the same compound?
**A.** 42 ± 6 min

**Q.** And the Kd (PDGFRB)?
**A.** 120 nM

**Q.** And the solubility at 18 h (Solubility)?
**A.** 0.4 ± 0.9 µM (≈ 0.138 µg/mL)

**Q.** What about the Kd (TRKA) of the same compound?
**A.** 1100 nM

**Q.** What about the Kd (KIT) of the same compound?
**A.** 1500 nM

**Q.** And the CLint scaled at 4 µM [2]?
**A.** 26.5 ± 1.6 mL/min/kg

**Q.** What about the half-life at 4 µM [2] of the same compound?
**A.** 15.6 ± 1.8 min

**Q.** What about the Kd (SRC) of the same compound?
**A.** 1100 nM

**Q.** What about the Kd (CSF1R-autoinhibited) of the same compound?
**A.** 1500 nM

**Q.** And the IC50 ([3]; FLT3 IC50, 100 μM ATP)?
**A.** < 6 nM

**Q.** What about the IC50 ([3]; FLT3 IC50, 2.5 mM ATP) of the same compound?
**A.** 116 nM

**Q.** What about the Kd (MINK) of the same compound?
**A.** 2500 nM

**Q.** What about the Kd (CLK1) of the same compound?
**A.** 430 nM

**Q.** And the Kd (PIP5K1C)?
**A.** 610 nM

**Q.** And the Kd (AURKC)?
**A.** > 10000 nM

**Q.** What about the Kd (HCK) of the same compound?
**A.** 2100 nM

**Q.** What about the Kd (RET (M918T)) of the same compound?
**A.** 1200 nM

**Q.** And the Kd (PIK4CB)?
**A.** 370 nM

**Q.** What about the Kd (LCK) of the same compound?
**A.** 2900 nM

**Q.** And the Kd (NEK10)?
**A.** 410 nM

**Q.** And the CLint scaled at 4 µM [4]?
**A.** 44.9 ± 1.4 mL/min/kg

**Q.** What about the half-life at 4 µM [4] of the same compound?
**A.** 62.4 ± 1.8 min

**Q.** What about the Kd [5] of the same compound?
**A.** 2100 nM

**Q.** What about the Kd (CLK4) of the same compound?
**A.** 690 nM

**Q.** And the Kd (TYRO3)?
**A.** 2700 nM

**Q.** For `CC(C)Nc1ccnc(Nc2cccc(-c3cccnc3)c2)n1` [Compound 5e, N^4-Isopropyl-N^2-(3-(pyridin-3-yl)phenyl)pyrimidine-2,4-diamine], which CLint scaled at 4 µM [1] is on record?
**A.** 28.2 ± 1.9 mL/min/kg

**Q.** What about the half-life at 4 µM [1] of the same compound?
**A.** 72 ± 6 min

**Q.** What about the Kd (PDGFRB) of the same compound?
**A.** 28 nM

**Q.** And the solubility at 18 h (Solubility)?
**A.** 26.4 ± 17 µM (≈ 8.06 µg/mL)

**Q.** What about the CLint scaled at 4 µM [2] of the same compound?
**A.** 180 ± 19.4 mL/min/kg

**Q.** What about the half-life [2] of the same compound?
**A.** 12 to 60 min

**Q.** What about the half-life at 4 µM [2] of the same compound?
**A.** 18 ± 1.8 min

**Q.** And the Kd (CSF1R)?
**A.** 460 nM

**Q.** What about the Kd [6] of the same compound?
**A.** 740 nM

**Q.** What about the plasma stability (Plasma stability [7]) of the same compound?
**A.** >48 h

**Q.** What about the Kd [8] of the same compound?
**A.** 28 nM

**Q.** And the plasma stability (Plasma stability [9])?
**A.** >48 h

**Q.** What about the Kd (EPHB6) of the same compound?
**A.** 440 nM

**Q.** And the Kd (CLK1)?
**A.** 260 nM

**Q.** What about the Kd (PIP5K1C) of the same compound?
**A.** 1300 nM

**Q.** What about the Kd (PIK4CB) of the same compound?
**A.** 330 nM

**Q.** And the Kd (NEK10)?
**A.** 2000 nM

**Q.** What about the AUC [10, 12] of the same compound?
**A.** 0.183 µM·h

**Q.** And the Tmax [10, 12]?
**A.** 4.98 min

**Q.** What about the Cmax ([10]; female, C57BL/6, mouse, plasma, ip, 3 mg/kg, Cmax, mice) of the same compound?
**A.** 327 nM

**Q.** What about the half-life ([10]; female, C57BL/6, mouse, plasma, ip, 3 mg/kg, T1/2, mice) of the same compound?
**A.** 13.8 min

**Q.** And the AUC [10, 13]?
**A.** 0.683 µM·h

**Q.** And the Tmax [10, 13]?
**A.** 4.98 min

**Q.** What about the Cmax ([10]; female, C57BL/6, mouse, plasma, ip, 5 mg/kg, Cmax, mice) of the same compound?
**A.** 927 nM

**Q.** And the half-life ([10]; female, C57BL/6, mouse, plasma, ip, 5 mg/kg, T1/2, mice)?
**A.** 32.4 min

**Q.** What about the AUC [10, 14] of the same compound?
**A.** 0.953 µM·h

**Q.** And the Tmax [10, 14]?
**A.** 15 min

**Q.** What about the Cmax ([10]; female, C57BL/6, mouse, plasma, ip, 10 mg/kg, Cmax, mice) of the same compound?
**A.** 1620 nM

**Q.** What about the half-life ([10]; female, C57BL/6, mouse, plasma, ip, 10 mg/kg, T1/2, mice) of the same compound?
**A.** 60 min

**Q.** And the half-life ([10]; female, C57BL/6, mouse, plasma, ip, 10 mg/kg, half-life, mice, across 3, 5 and 10 mg/kg)?
**A.** 13.8 to 60 min

**Q.** And the Cl ([10]; mice, i.p., 3 mg/kg)?
**A.** 845 mL/min/kg

**Q.** And the Cmax ([10]; mice, i.p., 3 mg/kg)?
**A.** 376 nM

**Q.** And the Vz ([10]; mice, i.p., 3 mg/kg)?
**A.** 16.7 L/kg

**Q.** And the Cl ([10]; mice, i.p., 5 mg/kg)?
**A.** 397 mL/min/kg

**Q.** What about the Vz ([10]; mice, i.p., 5 mg/kg) of the same compound?
**A.** 18.6 L/kg

**Q.** What about the Cl ([10]; mice, i.p., 10 mg/kg) of the same compound?
**A.** 552 mL/min/kg

**Q.** And the Cmax ([10]; mice, i.p., 10 mg/kg)?
**A.** 1650 nM

**Q.** And the Vz ([10]; mice, i.p., 10 mg/kg)?
**A.** 47.3 L/kg

**Q.** And the CLint scaled at 4 µM [4]?
**A.** 41.7 ± 2.7 mL/min/kg

**Q.** And the half-life at 4 µM [4]?
**A.** 66 ± 6 min

**Q.** What about the plasma stability (Plasma stability [11]) of the same compound?
**A.** >48 h

**Q.** What about the Kd (CLK4) of the same compound?
**A.** 1100 nM
